The supplement of paper PMC10307832

What was measured:
Assay in all cases: relative viability (nuclei count vs DMSO), 5 days (fraction); higher = more cells survive
[1] = compound: C(C(=O)C(=O)O)Br [Bromopyruvate] + Nc1nc2[nH]cc(CCc3ccc(C(=O)N[C@@H](CCC(=O)O)C(=O)O)cc3)c2c(=O)[nH]1 [Pemetrexed] (partner 0.2 µM)
How it was run: (§1)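 Medians of duplicate plates are given as relative viability. That measure is the nuclei count in treated wells divided by the count in vehicle wells. Counts were taken on 4× images of lung cancer cell lines in 1536-well plates, 5 days after pin-tool dosing the day after seeding with one drug alone or a fixed anchor-drug dose plus five library-drug doses (not always all listed) in √10 steps.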

[2] = compound: CC(O)(CS(=O)(=O)c1ccc(F)cc1)C(=O)Nc1ccc(C#N)c(C(F)(F)F)c1 [Bicalutamide] + CC(=O)Nc1cccc(-n2c(=O)n(C3CC3)c(=O)c3c(Nc4ccc(I)cc4F)n(C)c(=O)c(C)c32)c1 [Trametinib] (partner 0.02 µM)
How it was run: as §1

Bicalutamide + Foretinib = compound: CC(O)(CS(=O)(=O)c1ccc(F)cc1)C(=O)Nc1ccc(C#N)c(C(F)(F)F)c1 [Bicalutamide] + COc1cc2c(Oc3ccc(NC(=O)C4(C(=O)Nc5ccc(F)cc5)CC4)cc3F)ccnc2cc1OCCCN1CCOCC1 [Foretinib] (partner 0.25 µM)
How it was run: as §1

[3] = compound: CC(O)(CS(=O)(=O)c1ccc(F)cc1)C(=O)Nc1ccc(C#N)c(C(F)(F)F)c1 [Bicalutamide] + Nc1nc2[nH]cc(CCc3ccc(C(=O)N[C@@H](CCC(=O)O)C(=O)O)cc3)c2c(=O)[nH]1 [Pemetrexed] (partner 0.2 µM)
How it was run: as §1

With NCI-H1975 the relative viability ([1]; first compound 1 µM) was 0.276, the relative viability ([1]; first compound 3.162 µM) was 0.3 and the relative viability ([1]; first compound 10 µM) was 0.292. For the same cell line, the relative viability ([1]; first compound 31.62 µM) was 0.326, the relative viability ([1]; first compound 100 µM) was 0.292 and the relative viability ([2]; first compound 0.08 µM) was 0.323. For the same cell line, the relative viability ([2]; first compound 0.253 µM) was 0.412, the relative viability ([2]; first compound 0.8 µM) was 0.386 and the relative viability ([2]; first compound 2.53 µM) was 0.339. It also gave a relative viability (Bicalutamide + Foretinib; first compound 0.08 µM) of 1.07, a relative viability (Bicalutamide + Foretinib; first compound 0.253 µM) of 0.824 and a relative viability (Bicalutamide + Foretinib; first compound 0.8 µM) of 0.971. It also gave a relative viability (Bicalutamide + Foretinib; first compound 2.53 µM) of 0.827, a relative viability ([3]; first compound 0.08 µM) of 0.316 and a relative viability ([3]; first compound 0.253 µM) of 0.311. For the same cell line, the relative viability ([3]; first compound 0.8 µM) was 0.299 and the relative viability ([3]; first compound 2.53 µM) was 0.306.

In the case of NCI-H1651, the relative viability ([1]; first compound 1 µM) is reported as 0.551, the relative viability ([1]; first compound 3.162 µM) is reported as 0.583 and the relative viability ([1]; first compound 10 µM) is reported as 0.582. For the same cell line, the relative viability ([1]; first compound 31.62 µM) was 0.527, the relative viability ([1]; first compound 100 µM) was 0.579 and the relative viability ([2]; first compound 0.08 µM) was 0.836. It also gave a relative viability ([2]; first compound 0.253 µM) of 0.773, a relative viability ([2]; first compound 0.8 µM) of 0.932 and a relative viability ([2]; first compound 2.53 µM) of 0.83. It also gave a relative viability (Bicalutamide + Foretinib; first compound 0.08 µM) of 0.89, a relative viability (Bicalutamide + Foretinib; first compound 0.253 µM) of 0.734 and a relative viability (Bicalutamide + Foretinib; first compound 0.8 µM) of 1.01. The relative viability (Bicalutamide + Foretinib; first compound 2.53 µM) was 0.884, the relative viability ([3]; first compound 0.08 µM) was 0.597 and the relative viability ([3]; first compound 0.253 µM) was 0.525. The relative viability ([3]; first compound 0.8 µM) was 0.672 and the relative viability ([3]; first compound 2.53 µM) was 0.618.

With NCI-H460 the relative viability ([1]; first compound 1 µM) was 0.0598, the relative viability ([1]; first compound 3.162 µM) was 0.078 and the relative viability ([1]; first compound 10 µM) was 0.0595. For the same cell line, the relative viability ([1]; first compound 31.62 µM) was 0.0647, the relative viability ([1]; first compound 100 µM) was 0.0655 and the relative viability ([2]; first compound 0.08 µM) was 0.139. It also gave a relative viability ([2]; first compound 0.253 µM) of 0.129, a relative viability ([2]; first compound 0.8 µM) of 0.128 and a relative viability ([2]; first compound 2.53 µM) of 0.129. It also gave a relative viability (Bicalutamide + Foretinib; first compound 0.08 µM) of 1, a relative viability (Bicalutamide + Foretinib; first compound 0.253 µM) of 1 and a relative viability (Bicalutamide + Foretinib; first compound 0.8 µM) of 1.17. The relative viability (Bicalutamide + Foretinib; first compound 2.53 µM) was 0.963, the relative viability ([3]; first compound 0.08 µM) was 0.0574 and the relative viability ([3]; first compound 0.253 µM) was 0.0589. The relative viability ([3]; first compound 0.8 µM) was 0.0592 and the relative viability ([3]; first compound 2.53 µM) was 0.0687.

In the case of LCLC-103H, the relative viability ([1]; first compound 1 µM) is reported as 0.468, the relative viability ([1]; first compound 3.162 µM) is reported as 0.465 and the relative viability ([1]; first compound 10 µM) is reported as 0.472. The relative viability ([1]; first compound 31.62 µM) was 0.446, the relative viability ([1]; first compound 100 µM) was 0.48 and the relative viability ([2]; first compound 0.08 µM) was 0.705. It also gave a relative viability ([2]; first compound 0.253 µM) of 0.676, a relative viability ([2]; first compound 0.8 µM) of 0.697 and a relative viability ([2]; first compound 2.53 µM) of 0.704. The relative viability (Bicalutamide + Foretinib; first compound 0.08 µM) was 0.748, the relative viability (Bicalutamide + Foretinib; first compound 0.253 µM) was 0.702 and the relative viability (Bicalutamide + Foretinib; first compound 0.8 µM) was 0.907. The relative viability (Bicalutamide + Foretinib; first compound 2.53 µM) was 0.698, the relative viability ([3]; first compound 0.08 µM) was 0.446 and the relative viability ([3]; first compound 0.253 µM) was 0.408. For the same cell line, the relative viability ([3]; first compound 0.8 µM) was 0.469 and the relative viability ([3]; first compound 2.53 µM) was 0.462.

LCLC-97TM1 was tested, and the relative viability ([1]; first compound 1 µM) was 0.182, the relative viability ([1]; first compound 3.162 µM) was 0.152 and the relative viability ([1]; first compound 10 µM) was 0.187. The relative viability ([1]; first compound 31.62 µM) was 0.164, the relative viability ([1]; first compound 100 µM) was 0.195 and the relative viability ([2]; first compound 0.08 µM) was 0.214. For the same cell line, the relative viability ([2]; first compound 0.253 µM) was 0.177, the relative viability ([2]; first compound 0.8 µM) was 0.212 and the relative viability ([2]; first compound 2.53 µM) was 0.188. It also gave a relative viability (Bicalutamide + Foretinib; first compound 0.08 µM) of 0.871, a relative viability (Bicalutamide + Foretinib; first compound 0.253 µM) of 0.923 and a relative viability (Bicalutamide + Foretinib; first compound 0.8 µM) of 1.04. For the same cell line, the relative viability (Bicalutamide + Foretinib; first compound 2.53 µM) was 0.96, the relative viability ([3]; first compound 0.08 µM) was 0.169 and the relative viability ([3]; first compound 0.253 µM) was 0.173. It also gave a relative viability ([3]; first compound 0.8 µM) of 0.203 and a relative viability ([3]; first compound 2.53 µM) of 0.181.

NCI-H838 gave a relative viability ([1]; first compound 1 µM) of 0.244, a relative viability ([1]; first compound 3.162 µM) of 0.274 and a relative viability ([1]; first compound 10 µM) of 0.242. The relative viability ([1]; first compound 31.62 µM) was 0.232, the relative viability ([1]; first compound 100 µM) was 0.245 and the relative viability ([2]; first compound 0.08 µM) was 0.553. It also gave a relative viability ([2]; first compound 0.253 µM) of 0.419, a relative viability ([2]; first compound 0.8 µM) of 0.661 and a relative viability ([2]; first compound 2.53 µM) of 0.293. The relative viability (Bicalutamide + Foretinib; first compound 0.08 µM) was 0.994, the relative viability (Bicalutamide + Foretinib; first compound 0.253 µM) was 0.963 and the relative viability (Bicalutamide + Foretinib; first compound 0.8 µM) was 1.08. For the same cell line, the relative viability (Bicalutamide + Foretinib; first compound 2.53 µM) was 0.928, the relative viability ([3]; first compound 0.08 µM) was 0.272 and the relative viability ([3]; first compound 0.253 µM) was 0.232. For the same cell line, the relative viability ([3]; first compound 0.8 µM) was 0.261 and the relative viability ([3]; first compound 2.53 µM) was 0.243.

For NCI-H1355, the relative viability ([1]; first compound 1 µM) was 1.08, the relative viability ([1]; first compound 3.162 µM) was 1.12 and the relative viability ([1]; first compound 10 µM) was 1.14. For the same cell line, the relative viability ([1]; first compound 31.62 µM) was 1.08, the relative viability ([1]; first compound 100 µM) was 1.08 and the relative viability ([2]; first compound 0.08 µM) was 0.432. The relative viability ([2]; first compound 0.253 µM) was 0.383, the relative viability ([2]; first compound 0.8 µM) was 0.447 and the relative viability ([2]; first compound 2.53 µM) was 0.472. The relative viability (Bicalutamide + Foretinib; first compound 0.08 µM) was 1.03, the relative viability (Bicalutamide + Foretinib; first compound 0.253 µM) was 0.963 and the relative viability (Bicalutamide + Foretinib; first compound 0.8 µM) was 1.1. The relative viability (Bicalutamide + Foretinib; first compound 2.53 µM) was 1.03, the relative viability ([3]; first compound 0.08 µM) was 1.04 and the relative viability ([3]; first compound 0.253 µM) was 0.992. For the same cell line, the relative viability ([3]; first compound 0.8 µM) was 1.1 and the relative viability ([3]; first compound 2.53 µM) was 0.999.

HOP-62 was tested, and the relative viability ([1]; first compound 1 µM) was 0.302, the relative viability ([1]; first compound 3.162 µM) was 0.321 and the relative viability ([1]; first compound 10 µM) was 0.326. For the same cell line, the relative viability ([1]; first compound 31.62 µM) was 0.356, the relative viability ([1]; first compound 100 µM) was 0.207 and the relative viability ([2]; first compound 0.08 µM) was 0.396. For the same cell line, the relative viability ([2]; first compound 0.253 µM) was 0.403, the relative viability ([2]; first compound 0.8 µM) was 0.427 and the relative viability ([2]; first compound 2.53 µM) was 0.354. The relative viability (Bicalutamide + Foretinib; first compound 0.08 µM) was 1.11, the relative viability (Bicalutamide + Foretinib; first compound 0.253 µM) was 1.13 and the relative viability (Bicalutamide + Foretinib; first compound 0.8 µM) was 1.29. For the same cell line, the relative viability (Bicalutamide + Foretinib; first compound 2.53 µM) was 1.26, the relative viability ([3]; first compound 0.08 µM) was 0.371 and the relative viability ([3]; first compound 0.253 µM) was 0.289. The relative viability ([3]; first compound 0.8 µM) was 0.277 and the relative viability ([3]; first compound 2.53 µM) was 0.327.

NCI-H2087 gave a relative viability ([1]; first compound 1 µM) of 0.658, a relative viability ([1]; first compound 3.162 µM) of 0.745 and a relative viability ([1]; first compound 10 µM) of 0.651. For the same cell line, the relative viability ([1]; first compound 31.62 µM) was 0.72, the relative viability ([1]; first compound 100 µM) was 0.567 and the relative viability ([2]; first compound 0.08 µM) was 0.214. It also gave a relative viability ([2]; first compound 0.253 µM) of 0.191, a relative viability ([2]; first compound 0.8 µM) of 0.178 and a relative viability ([2]; first compound 2.53 µM) of 0.202. For the same cell line, the relative viability (Bicalutamide + Foretinib; first compound 0.08 µM) was 1.14, the relative viability (Bicalutamide + Foretinib; first compound 0.253 µM) was 1.17 and the relative viability (Bicalutamide + Foretinib; first compound 0.8 µM) was 1.15. It also gave a relative viability (Bicalutamide + Foretinib; first compound 2.53 µM) of 0.993, a relative viability ([3]; first compound 0.08 µM) of 0.684 and a relative viability ([3]; first compound 0.253 µM) of 0.662. It also gave a relative viability ([3]; first compound 0.8 µM) of 0.695 and a relative viability ([3]; first compound 2.53 µM) of 0.613.
